Results reported in US20260327211A1, “MODULATORS OF A POTASSIUM CHANNEL AND OF TRPV1 CHANNEL AND USES THEREOF” (Bsense Bio Therapeutics Ltd., priority 2023, published 2026).
Where two headings read alike, the source gives them in different places.

Assays:
[1] = Log D, 1-octanol/buffer shake flask; type: physicochemical; details: pH 7.4
Summary of the method: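 Compound from a 10 mM DMSO stock was partitioned between mutually saturated 1-octanol and 0.1 M phosphate buffer by shaking for 1 h at room temperature, then centrifuged. Each phase was diluted and quantified by LC/MS/MS. Log D came from the ratio of dilution- and internal-standard-corrected peak areas.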

hKv7.2/3 = molecular target: T1, hKv7.2/3 (Homo sapiens, UniProt O43525+O43526); test: Kv7.2/7.3 HCS, FLIPR potassium (thallium) assay, CHO/hKv7.2/3; type: cell-based
T1 construct: host or cells: CHO
Summary of the method: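 CHO cells stably expressing human Kv7.2/3, loaded with Tl+ indicator dye 1.5 h at room temperature in HBSS/HEPES with compound (0.2% DMSO). Channels activated by injection of 1 mM Tl2SO4 plus 5 mM K2SO4; fluorescence increase reflects Tl+ influx. EC50 from sigmoidal fit constrained to minimum 1, maximum ~3.6.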

[2] = Human liver microsome metabolic stability; type: in vitro ADME; details: for microsomal CLint at 1 µM: read-out: HLM Clint; for half-life at 1 µM: human, liver microsomes, read-out: HLM T1/2
Summary of the method: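 Compound at 1 μM was incubated at 37 °C with pooled liver microsomes at 0.5 mg/mL and an NADPH regenerating system (about 1.0 mM). Samples were taken from 0 to 60 min, quenched in cold acetonitrile and quantified by LC-MS/MS against an internal standard. CLint was scaled with species liver weights (rat 40 g/kg, human 20 g/kg).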

[3] = 1-octanol/phosphate buffer, read-out: LogD
[4] = Table 1, read-out: Kv7.2/7.3 IC50

T1 sequence (O43525 whole entry): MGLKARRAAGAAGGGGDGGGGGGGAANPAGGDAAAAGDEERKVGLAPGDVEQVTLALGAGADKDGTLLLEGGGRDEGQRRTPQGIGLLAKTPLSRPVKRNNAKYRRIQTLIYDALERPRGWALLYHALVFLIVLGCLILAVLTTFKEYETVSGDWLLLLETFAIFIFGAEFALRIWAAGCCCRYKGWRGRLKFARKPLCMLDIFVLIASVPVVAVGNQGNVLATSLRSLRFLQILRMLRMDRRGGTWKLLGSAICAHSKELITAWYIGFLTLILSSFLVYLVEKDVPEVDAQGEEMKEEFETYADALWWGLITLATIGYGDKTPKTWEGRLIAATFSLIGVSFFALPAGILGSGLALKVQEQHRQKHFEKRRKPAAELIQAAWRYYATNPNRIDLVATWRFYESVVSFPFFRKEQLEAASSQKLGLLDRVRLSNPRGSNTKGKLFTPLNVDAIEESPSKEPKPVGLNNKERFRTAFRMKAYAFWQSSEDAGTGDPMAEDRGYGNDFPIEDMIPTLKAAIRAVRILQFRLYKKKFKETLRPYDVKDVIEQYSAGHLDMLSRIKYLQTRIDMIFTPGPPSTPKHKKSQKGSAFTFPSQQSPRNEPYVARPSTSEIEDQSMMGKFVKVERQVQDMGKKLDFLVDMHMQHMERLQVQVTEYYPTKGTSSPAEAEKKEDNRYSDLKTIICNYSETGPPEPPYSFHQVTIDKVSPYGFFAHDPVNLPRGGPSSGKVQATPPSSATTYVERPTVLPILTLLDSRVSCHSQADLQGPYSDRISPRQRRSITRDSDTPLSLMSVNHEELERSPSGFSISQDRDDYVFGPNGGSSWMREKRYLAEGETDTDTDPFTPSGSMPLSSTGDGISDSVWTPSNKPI
T1 sequence (O43526 whole entry): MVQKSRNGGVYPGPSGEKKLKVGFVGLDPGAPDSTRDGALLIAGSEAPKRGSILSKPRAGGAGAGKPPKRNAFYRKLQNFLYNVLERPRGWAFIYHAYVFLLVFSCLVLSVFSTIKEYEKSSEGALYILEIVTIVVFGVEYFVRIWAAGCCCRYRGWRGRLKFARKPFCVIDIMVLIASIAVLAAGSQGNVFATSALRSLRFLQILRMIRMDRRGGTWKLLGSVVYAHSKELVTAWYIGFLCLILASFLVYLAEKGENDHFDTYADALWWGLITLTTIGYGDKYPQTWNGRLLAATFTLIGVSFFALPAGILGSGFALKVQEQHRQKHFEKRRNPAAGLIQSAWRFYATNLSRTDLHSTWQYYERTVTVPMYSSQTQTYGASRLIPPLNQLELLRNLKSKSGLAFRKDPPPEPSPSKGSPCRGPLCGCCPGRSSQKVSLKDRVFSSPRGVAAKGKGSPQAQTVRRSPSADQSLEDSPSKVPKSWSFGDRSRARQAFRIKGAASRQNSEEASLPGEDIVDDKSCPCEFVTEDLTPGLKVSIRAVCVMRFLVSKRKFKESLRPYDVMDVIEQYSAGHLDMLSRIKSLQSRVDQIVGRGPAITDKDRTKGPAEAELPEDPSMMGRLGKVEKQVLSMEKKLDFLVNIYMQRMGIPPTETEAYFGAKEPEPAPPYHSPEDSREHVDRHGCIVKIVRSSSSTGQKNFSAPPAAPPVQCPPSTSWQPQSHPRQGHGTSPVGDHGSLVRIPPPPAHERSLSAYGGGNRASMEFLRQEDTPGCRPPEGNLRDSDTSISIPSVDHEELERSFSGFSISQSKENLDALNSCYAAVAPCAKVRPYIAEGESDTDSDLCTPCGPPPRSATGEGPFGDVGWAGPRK

Row | SMILES | logD [1, 3] | EC50 (hKv7.2/3; [4]) [nM] | microsomal CLint at 1 µM ([2]; human liver microsomes) [µL/min/mg] | EC50 (hKv7.2/3; read-out: Kv7.2/7.3 EC50) [nM] | half-life at 1 µM ([2]; human liver microsomes) [min] | HLM and/or Rat PK clearance rates compared to compound 661 [2] | further results
1 | COC[C@@H](CO)NC(=O)Cc1cc(Sc2c(Cl)cc(F)cc2C(C)C)ccc1F [Compound 415] | 4.25 | 2200 | 839 | – | – | – | –
2 | Cc1cn(-c2ccc(F)c(CC(=O)NCC(C)(C)O)c2)c2c(Cl)cc(Cl)cc12 [Compound 421] | 5.45 | – | – | – | 25 | – | EC50 (hKv7.2/3; read-out: hKv7.2/3 EC50 HCS): 824 nM; CLint scaled at 1 µM ([2]; human liver microsomes): 50 mL/min/kg
3 | O=C(Cc1cc(-n2cc(Cl)c3cc(Cl)cc(Cl)c32)ccc1F)NCCO [Compound 627] | – | 540 | – | 500 | – | – | Kv7.2/3 activation (words) (hKv7.2/3): significant hKv7.2/3 activation even at picomolar concentrations; activation at 0.01 µM (hKv7.2/3; 10 nM range): ~30%
4 | O=C(Cc1cncc(-n2cc(Cl)c3cc(Cl)cc(Cl)c32)c1)N[C@@H]1COC[C@H]1O [Compound 661] | 3.55 | 1100 | 72 | – | 19.2 | – | Kv7.2/3 activation (words) (hKv7.2/3): partial yet potent facilitation of Kv7.2/3 activity; Emax (hKv7.2/3; read-out: Kv7.2/3 maximal opening vs. control): 21%; EC50 (hKv7.2/3; read-out: hKv7.2/3 EC50 HCS): 0.001 nM; CLint scaled at 1 µM ([2]; human liver microsomes): 64.8 mL/min/kg; HLM T1/2 ([2]; human liver microsomes, 1 µM): 19.3 min
5 | O=C(Cc1nccc(-n2cc(Cl)c3cc(Cl)cc(Cl)c32)n1)NC1COCC1O (centres unmarked) [Compound 760] | 3.28 | – | – | – | – | improved HLM and/or Rat PK clearance rates compared to compound 661 | –
6 | O=C(Cc1ccnc(-n2cc(Cl)c3cc(Cl)cc(Cl)c32)n1)N[C@@H]1COC[C@H]1O [Compound 820] | 3.82 | – | – | – | 33.8 | improved HLM and/or Rat PK clearance rates compared to compound 661 | –
7 | O=C(Cc1cc(-n2cc(C(F)(F)F)c3cc(Cl)cc(Cl)c32)ncn1)NCCO [Compound 843] | 3.75 | – | – | – | > 145 | improved HLM and/or Rat PK clearance rates compared to compound 661 | –

Now from value to compound, other results behind:

Row | logD [1, 3] | EC50 (hKv7.2/3; [4]) [nM] | microsomal CLint at 1 µM ([2]; human liver microsomes) [µL/min/mg] | EC50 (hKv7.2/3; read-out: Kv7.2/7.3 EC50) [nM] | half-life at 1 µM ([2]; human liver microsomes) [min] | SMILES | HLM and/or Rat PK clearance rates compared to compound 661 [2] | further results
8 | 4.08 | 13400 | 91.8 | – | – | CC(C)c1cc(Cl)cc(Cl)c1C(=O)c1ccc(F)c(CC(=O)NCC(C)(C)O)c1 [Compound 417-4] | – | –
9 | – | 1100 | – | 2100 | – | Cc1cn(-c2ccc(F)c(CC(=O)NCC(C)(C)O)c2)c2c(Cl)cc(Cl)cc12 [Compound 421-6] | – | logD [1]: 5.47; HLM Clint ([2]; human liver microsomes, 1 µM): 55.5 µL/min/mg
10 | 4.66 | – | – | 700 | 7.4 | CC(C)c1cc(Cl)cc(Cl)c1Nc1ccc(F)c(CC(=O)NCC(C)(C)O)c1 [NH91, reference compound] | – | –
